How the values were obtained:
Neutrophil collagenase = Neutrophil collagenase (Homo sapiens, UniProt P22894); conditions: read-out: log(1/IC50) (converted)
Collagenase 3 = Collagenase 3 (Homo sapiens, UniProt P45452)

Sequence of Neutrophil collagenase (P22894 whole entry): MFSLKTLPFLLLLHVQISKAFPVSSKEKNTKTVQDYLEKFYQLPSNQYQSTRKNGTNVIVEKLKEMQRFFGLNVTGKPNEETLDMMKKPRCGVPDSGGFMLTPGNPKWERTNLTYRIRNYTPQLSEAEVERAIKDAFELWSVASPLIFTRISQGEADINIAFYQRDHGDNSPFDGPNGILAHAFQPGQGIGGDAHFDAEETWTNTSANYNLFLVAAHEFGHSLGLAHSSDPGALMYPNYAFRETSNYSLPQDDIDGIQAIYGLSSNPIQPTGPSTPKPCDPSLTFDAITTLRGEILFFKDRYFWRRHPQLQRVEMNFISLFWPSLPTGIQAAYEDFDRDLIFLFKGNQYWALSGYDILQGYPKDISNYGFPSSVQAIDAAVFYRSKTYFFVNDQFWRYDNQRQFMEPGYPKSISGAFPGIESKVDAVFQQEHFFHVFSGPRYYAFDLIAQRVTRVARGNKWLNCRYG

SMILES | IC50 (Neutrophil collagenase) [nM] | IC50 (Collagenase 3) [nM]
COCCOC(=O)N1CCC(C(C(=O)O)N(Cc2cccnc2)S(=O)(=O)c2ccc(-c3ccc(OC)cc3)cc2)CC1 (stereo not given) | 3.24 | 3.02
COc1ccc(S(=O)(=O)N2CCCN(C(=O)CNOC(=O)C(C)(C)C)CC2C(=O)NO)cc1 (stereo not given) | – | 15.8
COc1ccc(S(=O)(=O)N2CCN(C(=O)c3nnsc3C)CC2C(=O)NO)cc1 (stereo not given) | – | 20.9
COc1ccc(S(=O)(=O)N2CCN(C(=O)C(O)C(C)C)CC2C(=O)NO)cc1 (stereo not given) | – | 1

Source: ChEMBL document CHEMBL1140610, “Matrix metalloproteinases (MMPs): chemical-biological functions and (Q)SARs” (Bioorg Med Chem, 2007)
